The values that follow come from patent US11014934B2, “Antiseptic drug” (AO “TATKHIMFARMPREPARATY”, priority 2017, dated 2021).

In general, IC50 refers to the concentration that gives 50% inhibition. For orientation: MIC means the least concentration at which growth counts as inhibited.

Converted amounts (≈) assume the structure as drawn.

One assay concerns E. coli CDC F-50. As to the kind of experiment: Antiseptic activity on rat skin. The format is in vivo. The settings on record: E. coli CDC F-50 on rat skin; antiseptic concentration 0.2%; exposure time 5 min; n = 6. Here is the method: The study of the antiseptic activity of compound I in rats […] was carried out in accordance with [R 4.2.2643-10 Metody laboratornykh issledovaniy i ispytaniy mediko-profilakticheskikh dezinfektsionnykh sredstv dlya otsenki ikh effektivnosti i bezopasnosti: Rukovodstvo.—M: Federal'nyy tsentr gigiyeny i epidemiologii Rospotrebnadzora, 2010.—S. 615. R 4.2.2643-10 Laboratory methods for the study and testing of medical prophylactic disinfectants to assess their effectiveness and safety: Guide.—M.:: Federal Center for Hygiene and Epidemiology of Rospotrebnadzor, 2010.—P. 615]. Experiments were carried out on male Wistar rats with a body weight of 180-250 g.
A culture of E. coli CDC F-50, grown on dense nutrient medium for (18-20) hours, was washed with sterile isotonic chloride solution, centrifuged at 5000 rpm for 5 minutes, the supernatant was drained and cells were resuspended with sterile isotonic sodium chloride solution.
The bacterial suspension of microorganisms was brought to a turbidity of […] according to McFarland, which corresponds to a concentration of 1.5×10^7 cells/ml.
Animals were formed in 5 groups of 6 animals each. All manipulations with animals were performed under isoflurane anesthesia (4%—induction of anesthesia (2 min, 1 l/min), 2%—basis narcosis). A portion of 5×5 cm was shaved with a hair clipper on the dorsal part of the body of the animal.
A 0.25 ml microbial suspension containing 1×10^7 CFU of E. coli CDC F-50 was applied to the shaved portion of the rat back with a dispenser and distributed with a sterile disposable spatula over the entire square area. It was left for 2-3 minutes until dry.
Then, a gauze cloth (5×5 cm) was applied to the skin of rats for 5 minutes. In the experimental group, the tissue was pre-wetted with 1 ml of 0.2% solution of compound I, and in the positive control groups, the tissue was dipped in 1 ml of 0.2% miramistin, benzalkonium chloride and chlorhexidine. In the negative control group, the cloth was immersed in 1 ml of sterile saline. […]
After the time required for the cultivation of microorganisms of this species, the results were counted according to the number of colonies grown on the Petri dish. […] After counting the number of colonies grown on Petri dishes, the density of contamination per 1 cm^2 of the surface and the percentage of disinfection were calculated, taking the number of colonies removed from control surfaces and not exposed to antiseptics action as 100%. The percentage of growth inhibition of E. coli CDC F-50 was calculated by the formula: […]

The test system of another assay is Stylonychia mytilus. Kind of assay: Antiprotozoal activity by death of protozoa. The format is cell-based. The settings on record: death of protozoa. Here is the method:
Evaluation of the antiprotozoal activity of compound I was determined by the viability of the protozoa genus of hypotrichs Stylonychia mytilus in a nutrient medium in the presence of the studied substances. A mother liquor of compound I (10 mg/ml) was prepared in a mixture of DMSO and 96% ethanol (1:1). A 1% aqueous solution of DMSO and ethyl alcohol served as a negative control, and miramistin, benzalkonium chloride, and chlorhexidine were used as reference preparations. Then, from the mother liquors by repeated dilutions with water, working solutions were prepared corresponding to doses of 5; 10; 20; 25; 50; 75; 100 and 150 μg/ml. 10 μl of culture medium with protozoa and 10 μl of a solution of the test substance were applied to a chamber slide. The experiment was done in five replicates.
Slides were examined under a light microscope, antiprotozoal activity of substances (MIC and IC50) were determined by the death of protozoa. The Hill regression model with 5 parameters was used for the analysis.

In the case of `[H]/N=C(\N/C(=N/[H])NCCCCCCNC(=N)NC(=N)Nc1ccc(Cl)cc1)Nc1ccc(Cl)cc1` [Chlorhexidine], the “Growth inhibition rate (M ± SD)” value in the assay with E. coli CDC F-50 was 95.7 ± 3.4%. For the same compound, in the assay on Stylonychia mytilus (Hill regression, read-out: IC50 (95% confidence interval)), the IC50 stood at 42 µg/mL (≈ 83.1 µM). Also, the minimum inhibitory concentration (MIC) in the assay on Stylonychia mytilus (read-out: MIC) came out at 20 µg/mL (≈ 39.6 µM).
